Values after ≈ are worked out from the molar mass of the structure shown.
Tests used:
Fungal ACC2 = Fungal ACC2 (UniProt Q00955); settings: read-out: Fungal ACC2 (IC50, in vitro ACC2 inhibition)
Botrtyis cinerea (Bc) = assay: Growth inhibition assay of fungal pathogens, Bc; format: cell-based; settings: 48 hours; read-out: Concentration at 90% Inhibition, Bc
Description: (§1) Compounds of the present invention were evaluated in a growth inhibition assay to determine the ability to control the growth of fungal pathogens, such as Botrtyis cinerea (Bc). Collectotrichum graminicola (Cg), Diplodia maydis (Dm), Fusarium moniliforme (Fm), Fusarium virguliforme (Fv), Phytophthora capsici (Pc), Rhizoctonia solani (Rs), and Septoria tritici (St). Compounds to be tested were dissolved in DMSO at 2.5 mg/ml to produce compound stock solutions (“stocks”). Stocks were diluted with DMSO by a five-fold dilution in a 96-well stock plate, and two sets of final concentrations of 50, 10, and 2 ppm or 2, 0.4, and 0.08 ppm were obtained in vitro. A set of positive controls was also prepared, with various concentrations of Soraphen (2, 0.4, and 0.08 ppm), Metalaxyl (1.1, 0.22, and 0.04 ppm), and Metconazole (2, 0.4, and 0.08 ppm or 0.2, 0.04, and 0.008 ppm) after the five-fold dilutions. Negative controls on each plate included 2% DMSO, water, and a blank (media+2% DMSO). Fungal spores were isolated from previously sub-cultured plates of Botrtyis cinerea (Bc), Collectotrichum graminicola (Cg), Diplodia maydis (Dm), Fusarium moniliforme (Fm), Fusarium virguliforme (Fv), Phytophthora capsici (Pc), and Septoria tritici (St). The isolated spores were diluted to individual concentrations with a 17% V8 liquid media. For Rhizoctonia solani (Rs) and Pythium irregulare, 1.5 mm mycelial plugs were used in place of spores and ¼ Potato Dextrose Broth (PDB) was used for dilution. The spore concentrations and plug sizes were based on growth curves generated at 48 hours for each pathogen. In a second 96-well plate, the spores or mycelial plugs, media, diluted compound solutions, and controls were combined. Once the compound was added, a true final concentration of compound in each well was measured by an OD600 reading, which adjusted for any compound precipitation that might have occurred in the well. Plate readings were repeated at both 24 and 48 hours. The blank negative control was used as a background subtraction. Additional visual ratings were performed at both 24 and 48 hours for checking on precipitation and confirming efficacy. Visual and OD600 ratings of the compounds at 48 hours were compared to the 2% DMSO negative control, and the percent of pathogen growth inhibition was determined based on those values.

C. krusei ATCC 6258 = assay: Anti-Fungal Activity Assay (broth microtiter MIC), C. krusei; format: cell-based, Candida krusei; settings: Pichia kudriavzevii, ATCC6258, 48 h, 3 replicates; MIC recorded at 48 h; read-out: MIC C. krusei ATCC 6258
How it was run: (§2)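 MIC taken as visual growth inhibition versus the growth control, mostly at 48 h (soraphen also at 24 h). Following CLSI M27-A3, colonies grown overnight at 35° C on Sabouraud dextrose agar were suspended in RPMI 1640+MOPS; test agents came from 1 mg/mL DMSO stocks.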

[1] = test system: Fusarium moniliforme (Fm); assay: Growth inhibition assay of fungal pathogens, Fm; format: cell-based; settings: Fusarium verticillioides; 48 hours; read-out: Concentration at 90% Inhibition, Fm
Description: as §1

[2] = test system: C. parapsilosis ATCC 22019; assay: Anti-Fungal Activity Assay (broth microtiter MIC), C. parapsilosis; format: cell-based, Candida parapsilosis; settings: Lodderomyces parapsilosis, ATCC22019, 48 h, 3 replicates; MIC recorded at 48 h; read-out: MIC C. parapsilosis ATCC 22019
How it was run: as §2

[3] = test system: Blumeria graminis f sp. hordei; assay: Foliar protection test, barley powdery mildew control; format: in vivo, Blumeria graminis f sp. hordei on Hordeum vulgare cv. Perry; settings: 168 h, compound concentration 50 ppm, foliar spray, evaluated 7 days after inoculation, read-out: Barley Powdery Mildew Control at 50 ppm
Description: Compounds of the present invention were evaluated in a foliar protection test to determine the ability to control barley powdery mildew. Plants (Hordeum vulgare cv. Perry) were grown for 6 days in 2-inch square pots containing Metromix 200 medium amended with fertilizer. For propagation, plants were maintained in a growth chamber at conditions of 20 to 21° C., 16 hour light cycle, 400 uM of light, 70% humidity, and with sub-irrigation as needed. After inoculation with the pathogen of Blumeria graminis f sp. hordei, plants were kept at conditions of 20 to 22° C., 70% relative humidity, and 200 uM of light to facilitate infection and disease development. At 6 days after planting (1st true leaf fully expanded), the test compounds were dissolved in a solution of 5% acetone and 0.005% Tween 80 surfactant. An atomizer was used for applying the solution onto both sides of the leaves until thoroughly wetted. The amount of the compound applied to the leaves was typically 200, 100, 50, 10, or 2 ppm, but it may vary. At 24 hours after treatment, the plants were moved to a cooler chamber and inoculated by shaking well-colonized, untreated stock plants above the treated plants. This allowed producing a settling cloud of spores and resulting in uniform infection. Efficacy was evaluated in 7 days later by examining leaves for colonization and growth of mildew. Table 5 lists the results of barley powdery mildew control at a compound concentration of 50 ppm or 10 ppm. Compounds having an activity designated as “AA” provided a compound having >85% control of barley powdery mildew; compounds having an activity designated as “A” provided a compound having from 70% to 84% control of barley powdery mildew; compounds having an activity designated as “B” provided a compound having from 50 to 69% control of barley powdery mildew; compounds having an activity designated as “C” provided a compound having from 25 to 49% control of barley powdery mildew; and compounds having an activity designated as “D” provided a compound having <25% control of barley powdery mildew.

Rhizoctonia solani (Rs) = assay: Growth inhibition assay of fungal pathogens, Rs; format: cell-based; settings: 48 hours, read-out: Concentration at 90% Inhibition, Rs
Description: as §1

Human ACC2 = Human ACC2 (Homo sapiens, UniProt O00763); assay: In vitro ACC2 inhibition assay (ADP-Glo), human ACC2; format: biochemical; settings: 5 nM ACC2, 20 μM ATP, 20 μM acetyl-CoA
Diplodia maydis (Dm) = assay: Growth inhibition assay of fungal pathogens, Dm; format: cell-based; settings: Stenocarpella maydis; 48 hours; read-out: Concentration at 90% Inhibition, Dm
Description: as §1

[4] = test system: Collectotrichum graminicola (Cg); assay: Growth inhibition assay of fungal pathogens, Cg; format: cell-based; settings: 48 hours; read-out: Concentration at 90% Inhibition, Cg
Description: as §1

Septoria tritici (St) = assay: Growth inhibition assay of fungal pathogens, St; format: cell-based; settings: Zymoseptoria tritici; 48 hours; read-out: Concentration at 90% Inhibition, St
Description: as §1

C. albicans ATCC 90028 = assay: Anti-Fungal Activity Assay (broth microtiter MIC), C. albicans; format: cell-based, Candida albicans; settings: Candida albicans, ATCC90028, 48 h, 3 replicates; MIC recorded at 48 h; read-out: MIC C. albicans ATCC 90028
How it was run: as §2

[5] = test system: Phytophthora capsici (Pc); assay: Growth inhibition assay of fungal pathogens, Pc; format: cell-based; settings: 48 hours, read-out: Concentration at 90% Inhibition, Pc
Description: as §1

[6] = test system: Fusarium virguliforme (Fv); assay: Growth inhibition assay of fungal pathogens, Fv; format: cell-based; settings: 48 hours, read-out: Concentration at 90% Inhibition, Fv
Description: as §1

[7] = compound concentration 10 ppm, foliar spray, evaluated 7 days after inoculation

Fungal ACC2, sequence (Q00955 whole entry): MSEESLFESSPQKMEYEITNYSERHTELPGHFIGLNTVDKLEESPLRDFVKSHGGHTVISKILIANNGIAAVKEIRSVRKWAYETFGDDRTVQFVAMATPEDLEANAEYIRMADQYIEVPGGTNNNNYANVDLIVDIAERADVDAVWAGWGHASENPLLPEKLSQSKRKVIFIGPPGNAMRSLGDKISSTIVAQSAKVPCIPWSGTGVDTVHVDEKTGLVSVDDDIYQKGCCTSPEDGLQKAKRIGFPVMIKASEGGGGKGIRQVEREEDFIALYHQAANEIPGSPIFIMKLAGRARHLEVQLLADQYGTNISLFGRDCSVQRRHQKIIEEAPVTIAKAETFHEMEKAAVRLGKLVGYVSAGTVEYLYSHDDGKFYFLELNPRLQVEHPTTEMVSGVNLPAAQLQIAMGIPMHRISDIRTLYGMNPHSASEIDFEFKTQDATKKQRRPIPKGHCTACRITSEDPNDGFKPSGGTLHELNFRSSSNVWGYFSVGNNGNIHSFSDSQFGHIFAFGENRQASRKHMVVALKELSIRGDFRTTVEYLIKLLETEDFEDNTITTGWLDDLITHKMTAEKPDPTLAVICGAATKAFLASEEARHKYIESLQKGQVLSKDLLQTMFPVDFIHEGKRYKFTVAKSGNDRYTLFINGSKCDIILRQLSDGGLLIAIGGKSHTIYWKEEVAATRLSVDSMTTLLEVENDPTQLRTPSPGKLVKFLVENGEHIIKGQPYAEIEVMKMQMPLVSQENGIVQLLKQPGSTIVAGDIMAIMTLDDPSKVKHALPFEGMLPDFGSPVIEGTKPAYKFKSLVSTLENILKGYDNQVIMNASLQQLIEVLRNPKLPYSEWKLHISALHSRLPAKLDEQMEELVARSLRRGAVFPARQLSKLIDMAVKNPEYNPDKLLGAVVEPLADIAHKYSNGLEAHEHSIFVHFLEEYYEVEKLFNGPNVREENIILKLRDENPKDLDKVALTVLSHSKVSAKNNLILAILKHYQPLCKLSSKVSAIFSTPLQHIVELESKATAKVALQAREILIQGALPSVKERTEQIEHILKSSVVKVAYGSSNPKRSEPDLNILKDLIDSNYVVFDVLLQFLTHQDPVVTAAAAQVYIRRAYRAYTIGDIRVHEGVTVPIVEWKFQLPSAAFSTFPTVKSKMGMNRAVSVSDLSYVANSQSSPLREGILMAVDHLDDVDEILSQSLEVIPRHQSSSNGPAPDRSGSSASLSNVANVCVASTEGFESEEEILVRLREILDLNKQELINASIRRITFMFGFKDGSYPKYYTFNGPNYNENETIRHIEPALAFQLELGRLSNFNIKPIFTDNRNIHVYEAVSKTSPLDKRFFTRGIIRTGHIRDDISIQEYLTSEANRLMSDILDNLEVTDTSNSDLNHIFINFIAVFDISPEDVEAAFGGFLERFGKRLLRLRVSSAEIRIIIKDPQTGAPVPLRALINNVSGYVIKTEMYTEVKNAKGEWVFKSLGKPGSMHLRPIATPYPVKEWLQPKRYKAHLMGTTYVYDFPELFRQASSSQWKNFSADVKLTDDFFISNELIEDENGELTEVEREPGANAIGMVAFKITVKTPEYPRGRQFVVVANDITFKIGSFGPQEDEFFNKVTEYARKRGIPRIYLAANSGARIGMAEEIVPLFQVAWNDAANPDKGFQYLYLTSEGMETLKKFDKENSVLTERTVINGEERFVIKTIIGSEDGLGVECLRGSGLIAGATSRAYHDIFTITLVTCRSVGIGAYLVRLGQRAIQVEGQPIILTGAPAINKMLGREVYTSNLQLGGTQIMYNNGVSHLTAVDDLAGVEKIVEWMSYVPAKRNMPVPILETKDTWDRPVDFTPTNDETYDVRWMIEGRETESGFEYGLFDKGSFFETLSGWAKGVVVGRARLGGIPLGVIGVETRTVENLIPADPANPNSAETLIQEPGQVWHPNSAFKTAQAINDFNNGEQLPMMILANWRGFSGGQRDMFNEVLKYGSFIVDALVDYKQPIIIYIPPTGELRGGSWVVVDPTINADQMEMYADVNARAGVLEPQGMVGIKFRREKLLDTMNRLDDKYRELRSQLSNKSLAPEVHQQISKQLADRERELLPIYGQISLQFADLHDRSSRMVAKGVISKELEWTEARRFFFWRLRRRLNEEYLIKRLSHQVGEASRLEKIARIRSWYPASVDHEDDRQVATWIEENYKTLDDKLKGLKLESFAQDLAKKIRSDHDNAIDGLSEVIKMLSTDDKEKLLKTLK
Human ACC2, sequence (O00763 whole entry): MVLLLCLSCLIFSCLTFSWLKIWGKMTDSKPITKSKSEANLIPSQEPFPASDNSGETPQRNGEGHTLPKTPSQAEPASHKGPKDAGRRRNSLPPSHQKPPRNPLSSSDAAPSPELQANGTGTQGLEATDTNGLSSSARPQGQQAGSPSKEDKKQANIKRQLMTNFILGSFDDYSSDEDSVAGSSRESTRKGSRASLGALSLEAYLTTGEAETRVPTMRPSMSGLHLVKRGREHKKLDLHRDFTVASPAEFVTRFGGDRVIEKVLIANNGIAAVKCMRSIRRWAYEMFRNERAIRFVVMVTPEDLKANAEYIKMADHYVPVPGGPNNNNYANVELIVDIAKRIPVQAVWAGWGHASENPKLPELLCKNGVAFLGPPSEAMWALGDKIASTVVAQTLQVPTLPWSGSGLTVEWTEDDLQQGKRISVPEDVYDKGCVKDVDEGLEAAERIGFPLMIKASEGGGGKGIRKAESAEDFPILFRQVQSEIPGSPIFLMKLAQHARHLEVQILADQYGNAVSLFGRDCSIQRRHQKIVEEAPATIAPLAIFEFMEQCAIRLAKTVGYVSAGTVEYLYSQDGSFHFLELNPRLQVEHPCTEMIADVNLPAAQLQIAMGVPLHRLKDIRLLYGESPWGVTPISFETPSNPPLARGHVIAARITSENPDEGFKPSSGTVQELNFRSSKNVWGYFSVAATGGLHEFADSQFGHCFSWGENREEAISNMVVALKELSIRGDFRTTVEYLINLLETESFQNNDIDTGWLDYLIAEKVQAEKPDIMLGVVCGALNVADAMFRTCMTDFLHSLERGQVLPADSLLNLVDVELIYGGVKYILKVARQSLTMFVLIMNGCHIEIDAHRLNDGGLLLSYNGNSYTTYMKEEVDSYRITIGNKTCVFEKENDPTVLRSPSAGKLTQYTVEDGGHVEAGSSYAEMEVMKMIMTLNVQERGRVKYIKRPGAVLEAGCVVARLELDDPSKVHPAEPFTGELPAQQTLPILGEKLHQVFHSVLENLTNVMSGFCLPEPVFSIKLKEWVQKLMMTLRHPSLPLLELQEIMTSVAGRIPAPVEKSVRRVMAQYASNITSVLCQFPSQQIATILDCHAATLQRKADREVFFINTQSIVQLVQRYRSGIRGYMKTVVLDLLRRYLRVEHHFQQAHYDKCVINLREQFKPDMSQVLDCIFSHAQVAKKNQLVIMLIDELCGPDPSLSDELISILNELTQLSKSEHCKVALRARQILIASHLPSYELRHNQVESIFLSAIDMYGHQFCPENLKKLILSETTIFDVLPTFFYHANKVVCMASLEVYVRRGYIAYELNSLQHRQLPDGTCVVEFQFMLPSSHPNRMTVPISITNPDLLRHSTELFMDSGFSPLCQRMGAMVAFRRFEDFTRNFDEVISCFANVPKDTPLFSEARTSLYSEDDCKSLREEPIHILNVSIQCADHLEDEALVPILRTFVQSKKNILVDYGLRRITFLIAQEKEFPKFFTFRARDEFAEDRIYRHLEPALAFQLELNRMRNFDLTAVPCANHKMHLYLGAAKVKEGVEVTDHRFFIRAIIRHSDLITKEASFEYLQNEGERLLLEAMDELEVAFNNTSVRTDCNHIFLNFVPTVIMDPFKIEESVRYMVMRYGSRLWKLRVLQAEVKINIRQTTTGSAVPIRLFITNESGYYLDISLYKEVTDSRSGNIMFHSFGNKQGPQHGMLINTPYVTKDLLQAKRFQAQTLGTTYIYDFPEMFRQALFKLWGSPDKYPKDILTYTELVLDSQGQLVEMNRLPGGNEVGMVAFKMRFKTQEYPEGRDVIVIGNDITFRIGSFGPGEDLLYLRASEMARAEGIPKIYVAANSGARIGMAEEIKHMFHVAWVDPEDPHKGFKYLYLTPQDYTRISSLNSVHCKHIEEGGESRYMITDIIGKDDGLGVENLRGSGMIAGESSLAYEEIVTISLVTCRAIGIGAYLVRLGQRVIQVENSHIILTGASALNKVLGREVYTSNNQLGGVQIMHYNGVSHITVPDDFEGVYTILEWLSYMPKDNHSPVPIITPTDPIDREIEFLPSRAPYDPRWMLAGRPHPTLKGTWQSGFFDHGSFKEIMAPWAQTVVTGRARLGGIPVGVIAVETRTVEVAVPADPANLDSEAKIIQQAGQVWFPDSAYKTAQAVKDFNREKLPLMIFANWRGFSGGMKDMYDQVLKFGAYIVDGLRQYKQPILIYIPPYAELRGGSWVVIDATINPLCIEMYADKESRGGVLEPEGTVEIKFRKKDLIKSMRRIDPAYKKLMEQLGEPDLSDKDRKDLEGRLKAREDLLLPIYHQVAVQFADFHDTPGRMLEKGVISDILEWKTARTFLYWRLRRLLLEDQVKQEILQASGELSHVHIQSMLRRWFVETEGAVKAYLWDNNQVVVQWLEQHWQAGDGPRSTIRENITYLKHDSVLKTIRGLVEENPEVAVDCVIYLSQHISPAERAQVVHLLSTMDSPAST

Structure (SMILES)	IC50 (Fungal ACC2)	IC90 (Botrtyis cinerea (Bc))	MIC (C. krusei ATCC 6258)	IC90 [1]	MIC [2]	pest or weed control at 50 ppm [3]	IC90 (Rhizoctonia solani (Rs))	IC50 (Human ACC2)	IC90 (Diplodia maydis (Dm))	IC90 [4]	IC90 (Septoria tritici (St))	MIC (C. albicans ATCC 90028)	IC90 [5]	IC90 [6]	Barley Powdery Mildew Control at 10 ppm [7]
COCCO[C@@H](Cn1c(=O)n([C@H]2CCCN(C(C)C)C2=O)c(=O)c2c(C)c(-n3nccn3)sc21)c1cc(F)ccc1OC [Compound I-78, 1-((R)-2-(5-fluoro-2-methoxyphenyl)-2-(2-methoxy-ethoxy)ethyl)-3-((S)-1-isopropyl-2-oxopiperidin-3-yl)-5-methyl-6-(2H-1,2,3-triazol-2-yl)thieno[2,3-d]pyrimidine-2,4(1H,3H)-dione]	2 to 10 nM	2 µg/mL (≈ 3.25 µM)	2.1 to 4 µg/mL (≈ 3.42 to 6.51 µM)	2 µg/mL (≈ 3.25 µM)	2.1 to 4 µg/mL (≈ 3.42 to 6.51 µM)	25 to 49%	> 50 µg/mL	10 to 100 nM	10 µg/mL (≈ 16.3 µM)	> 50 µg/mL	> 50 µg/mL	2.1 to 4 µg/mL (≈ 3.42 to 6.51 µM)	> 50 µg/mL	> 50 µg/mL	–
COCCO[C@@H](Cn1c(=O)n([C@@H]2CCCN(C(C)C)C2=O)c(=O)c2c(C)c(-n3nccn3)sc21)c1cc(F)ccc1OC [Compound I-79, 1-((R)-2-(5-fluoro-2-methoxyphenyl)-2-(2-methoxy-ethoxy)ethyl)-3-((R)-1-isopropyl-2-oxopiperidin-3-yl)-5-methyl-6-(2H-1,2,3-triazol-2-yl)thieno[2,3-d]pyrimidine-2,4(1H,3H)-dione]	2 to 10 nM	> 50 µg/mL	1.1 to 2 µg/mL (≈ 1.79 to 3.25 µM)	10 µg/mL (≈ 16.3 µM)	0.25 to 1 µg/mL (≈ 0.407 to 1.63 µM)	50 to 69%	> 50 µg/mL	100 to 1000 nM	10 µg/mL (≈ 16.3 µM)	> 50 µg/mL	> 50 µg/mL	1.1 to 2 µg/mL (≈ 1.79 to 3.25 µM)	> 50 µg/mL	> 50 µg/mL	–
COc1ccc(F)cc1[C@H](Cn1c(=O)n([C@H]2CCN(C)C2=O)c(=O)c2c(C)c(-n3nccn3)sc21)OCCC#N [Compound I-108, 3-((R)-1-(5-fluoro-2-methoxyphenyl)-2-(5-methyl-3-((S)-1-methyl-2-oxopyrrolidin-3-yl)-2,4-dioxo-6-(2H-1,2,3-triazol-2-yl)-3,4-dihydro-thieno[2,3-d]pyrimidin-1 (2H)-yl)ethoxy)propanenitrile]	0.7 to 2 nM	0.4 µg/mL (≈ 0.705 µM)	2.1 to 4 µg/mL (≈ 3.7 to 7.05 µM)	0.08 µg/mL (≈ 0.141 µM)	2.1 to 4 µg/mL (≈ 3.7 to 7.05 µM)	–	2 µg/mL (≈ 3.52 µM)	2 to 10 nM	10 µg/mL (≈ 17.6 µM)	10 µg/mL (≈ 17.6 µM)	> 50 µg/mL	2.1 to 4 µg/mL (≈ 3.7 to 7.05 µM)	> 50 µg/mL	2 µg/mL (≈ 3.52 µM)	AA (provided a compound having >85% control of barley powdery mildew)
COc1ccc(F)cc1[C@H](Cn1c(=O)n([C@@H]2CCN(C)C2=O)c(=O)c2c(C)c(-n3nccn3)sc21)OCCC#N [Compound I-109, 3-((R)-1-(5-fluoro-2-methoxyphenyl)-2-(5-methyl-3-((R)-1-methyl-2-oxopyrrolidin-3-yl)-2,4-dioxo-6-(2H-1,2,3-triazol-2-yl)-3,4-dihydro-thieno[2,3-d]pyrimidin-1(2H)-yl)ethoxy)propanenitrile]	0.7 to 2 nM	0.4 µg/mL (≈ 0.705 µM)	2.1 to 4 µg/mL (≈ 3.7 to 7.05 µM)	0.4 µg/mL (≈ 0.705 µM)	2.1 to 4 µg/mL (≈ 3.7 to 7.05 µM)	–	2 µg/mL (≈ 3.52 µM)	2 to 10 nM	2 µg/mL (≈ 3.52 µM)	2 µg/mL (≈ 3.52 µM)	> 50 µg/mL	2.1 to 4 µg/mL (≈ 3.7 to 7.05 µM)	> 50 µg/mL	2 µg/mL (≈ 3.52 µM)	A (provided a compound having from 70% to 84% control of barley powdery mildew)
COc1ccc(F)cc1[C@@H](O)Cn1c(=O)n([C@H]2CCN(C)C2=O)c(=O)c2c(C)c(-n3nccn3)sc21 [Compound I-164, 1-((R)-2-(5-fluoro-2-methoxyphenyl)-2-hydroxyethyl)-5-methyl-3-((S)-1-methyl-2-oxopyrrolidin-3-yl)-6-(2H-1,2,3-triazol-2-yl)thieno[2,3-d]pyrimidine-2,4(1H,3H)-dione]	0.7 to 2 nM	2 µg/mL (≈ 3.89 µM)	1.1 to 2 µg/mL (≈ 2.14 to 3.89 µM)	0.4 µg/mL (≈ 0.777 µM)	2.1 to 4 µg/mL (≈ 4.08 to 7.77 µM)	–	0.4 µg/mL (≈ 0.777 µM)	10 to 100 nM	> 50 µg/mL	10 µg/mL (≈ 19.4 µM)	> 50 µg/mL	2.1 to 4 µg/mL (≈ 4.08 to 7.77 µM)	> 50 µg/mL	2 µg/mL (≈ 3.89 µM)	B (provided a compound having from 50 to 69% control of barley powdery mildew)
COc1ccc(F)cc1[C@@H](O)Cn1c(=O)n([C@@H]2CCN(C)C2=O)c(=O)c2c(C)c(-n3nccn3)sc21 [Compound I-166, 1-((R)-2-(5-fluoro-2-methoxyphenyl)-2-hydroxyethyl)-5-methyl-3-((R)-1-methyl-2-oxopyrrolidin-3-yl)-6-(2H-1,2,3-triazol-2-yl)thieno[2,3-d]pyrimidine-2,4(1H,3H)-dione]	0.7 to 2 nM	2 µg/mL (≈ 3.89 µM)	–	2 µg/mL (≈ 3.89 µM)	–	–	2 µg/mL (≈ 3.89 µM)	2 to 10 nM	10 µg/mL (≈ 19.4 µM)	10 µg/mL (≈ 19.4 µM)	> 50 µg/mL	–	> 50 µg/mL	10 µg/mL (≈ 19.4 µM)	B (provided a compound having from 50 to 69% control of barley powdery mildew)

Reference: US20190330224A1, “ACC INHIBITORS AND USES THEREOF” (Gilead Apollo, LLC, priority 2015, published 2019)
